Earlier results on 123 compounds are cited in the CATMoS acute toxicity set (Mansouri et al. 2021).

Where “and” joins values, the source holds several entries; their conditions need not be identical. Equal entries are not always repeated.

The nature of the series: rat acute oral toxicity. The conditions noted are these: in vivo.
The term LD50 denotes the dose expected to kill half of the subjects tested. In the case of `CCOc1ccc(Cl)cc1C(CN1CCCCC1)C(C)CC` (stereo not drawn), the LD50 was 445 mg/kg.
As to `COc1ccc(C(=O)CCC(=O)O)c2ccoc12`, the LD50 was 1230 mg/kg.
Take `CC(CN(CCN(CC(C)OB(O)O)CC(C)OB(O)O)CC(C)OB(O)O)OB(O)O` (stereo not drawn): the LD50 was 4930 mg/kg.
On to `Nc1cnn(-c2ccccc2)c(=O)c1Br`, for which the LD50 is 8500 mg/kg.
With `CCOP(=O)(OCC)SCCS(=O)CC` (stereo not drawn), the LD50 is 2 mg/kg.
Regarding `COc1ccc2c(c1)c(CC(=O)OCC(=O)O)c(C)n2C(=O)c1ccc(Cl)cc1`, the LD50 was 24.2 mg/kg.
For `CCCCOC(=O)/C=C\C(=O)OCCCC`, the LD50 is 3700 mg/kg.
Take `O=C(Oc1ccc(Cl)cc1Cl)N1CCCC1`: the LD50 was 2200 mg/kg.
For `CN=C(O)O/N=C1/SCOC1C` (stereo not drawn), the LD50 was 12 mg/kg.
In the case of `NC(N)=NCC1CCCCCCN1` (stereo not drawn), the LD50 is 3550 mg/kg.
`Cc1cc(Cl)ccc1N`: the LD50 is 1060 mg/kg.
Regarding `Cn1c(=O)c2c(ncn2CCCCN2CCN(c3ccc(F)cc3)CC2)n(C)c1=O`, the LD50 is 353 mg/kg.
Turning to `Cc1cccc(C(=O)O)c1O`, the LD50 was 445 mg/kg.
As for `CC(C)OC(=O)c1c[n+](C)c2n(c1=O)C(C)CCC2` (stereo not drawn), the LD50 is 1200 mg/kg.
With `CC(C)(CO)C(O)C#N` (stereo not drawn), the LD50 was 310 mg/kg.
Take `COC(C)CO` (stereo not drawn): the LD50 was 5710 mg/kg.
Turning to `O=[N+]([O-])c1ccc(O)c(CNCCCl)c1`, the LD50 was 25 mg/kg.
For the compound `CC(O)C1Sc2ccccc2N(CCCN(C)C)C1c1ccccc1` (stereo not drawn), the LD50 is 800 mg/kg.
For the compound `CCOC(=O)C1=CN(C(C)=O)C2CCCC(C)N2C1=O` (stereo not drawn), the LD50 was 2500 mg/kg.
With `CN1CCC2(C)c3cc(OC(=O)NCCCCCCCCCCN4CCOCC4)ccc3N(C)C12` (stereo not drawn), the LD50 is 40 mg/kg.
For the compound `CCOC(=O)C(C)(C)Oc1ccc(Cl)cc1`, the LD50 was 940 mg/kg.
On to `CCCCOC(=O)n1c(Br)nc(Br)c1Br`, for which the LD50 was 44 mg/kg.
For the compound `CCOc1ccc(NC(=O)CC(C)O)cc1` (stereo not drawn), the LD50 is 7000 mg/kg.
Regarding `C=C1/C(=C/C=C2/CCC[C@]3(C)[C@@H]([C@H](C)CCCC(C)C)CC[C@@H]23)C[C@@H](O)C[C@@H]1O`, the LD50 is 0.34 mg/kg.
Take `COc1cccc([C@@]2(O)CCCC[C@H]2CN(C)C)c1`: the LD50 was 228 mg/kg.
In the case of `CN(N=O)c1ccccn1`, the LD50 is 60 mg/kg.
Take `C/C=C1/C[C@@H](C)[C@](O)(CO)C(=O)OCC2=CCN3CC[C@@H](OC1=O)[C@@H]23`: the LD50 was 34 mg/kg.
`CCOC(=O)C=Cc1ccc(Cl)cc1`: the LD50 is 957 mg/kg.
As for `CCOC(=O)CI`, the LD50 is 50 mg/kg.
Take `O=S1(=O)CCCCO1`: the LD50 is 500 mg/kg.
Consider `O=[N+]([O-])c1cccc2ccccc12`, for which the LD50 is 150 mg/kg.
With `CN1CCC23CCCCC2C1Cc1ccc(O)cc13` (stereo not drawn), the LD50 was 350 mg/kg.
For the compound `CNC(C)Cc1ccccc1OC` (stereo not drawn), the LD50 was 630 mg/kg.
In the case of `CCCCC(CC)CO[Si](O)(O)O` (stereo not drawn), the LD50 was 19700 mg/kg.
For the compound `COc1ccc2c(c1)c(CC(=O)Oc1cccc(C(F)(F)F)c1)c(C)n2C(=O)c1ccc(Cl)cc1`, the LD50 was 307 mg/kg.
For the compound `CC=Cc1ccc(OP(=S)(OC)OC)c(OC)c1`, the LD50 was 250 mg/kg.
Regarding `CCCCCCCCCCCCCOCCOCCOCCOCCOCCOCCO`, the LD50 was 1400 mg/kg.
Take `N#CC(F)(F)C(F)(F)C(F)(F)C#N`: the LD50 is 2600 mg/kg.
`Ic1ccc(Nc2nnc(CCN3c4ccccc4Sc4ccccc43)s2)cc1`: the LD50 is 3100 mg/kg.
As to `CCOC(=O)N1CC=Cc2ccccc21`, the LD50 was 195 mg/kg.
Take `Cc1ncc(CSSCc2cnc(C)c(O)c2CO)c(CO)c1O`: the LD50 was 6000 mg/kg.
As for `O=C(O)C(F)(F)C(F)(F)C(F)(F)C(F)(F)C(F)(F)C(F)(F)C(F)(F)C(F)(F)C(F)(F)C(F)F`, the LD50 is 518 mg/kg.
In the case of `CCN(CCCCOC(=O)c1ccc(OC)c(OC)c1)C1CCc2cc(OC)c(OC)cc2C1` (stereo not drawn), the LD50 was 1540 mg/kg.
Regarding `CCCCC(CC)CNC(=O)CC(C)OC(=O)CCC(=O)O` (stereo not drawn), the LD50 was 12100 mg/kg.
Consider `O=P(O)(O)OCC(Cl)(Cl)Cl`, for which the LD50 is 850 mg/kg and 1900 mg/kg.
Take `NC(=S)Nc1cccc(Cl)c1`: the LD50 was 25 mg/kg.
`O=C(O)CSc1nc(-c2ccccc2)ns1`: the 50% lethal dose (LD50) was 500 mg/kg.
As to `CC(O)CN(CC(C)O)c1nc(Nc2ccc(C=Cc3ccc(Nc4nc(Nc5cc(S(=O)(=O)O)ccc5S(=O)(=O)O)nc(N(CC(C)O)CC(C)O)n4)cc3S(=O)(=O)O)c(S(=O)(=O)O)c2)nc(Nc2cc(S(=O)(=O)O)ccc2S(=O)(=O)O)n1` (stereo not drawn), the LD50 is 12100 mg/kg.
Regarding `Cc1cc(C)cc(Cc2ccccc2)c1`, the LD50 is 2330 mg/kg.
`NCC(O)c1cccc(O)c1` (stereo not drawn): the LD50 is 390 mg/kg.
In the case of `CCCCC(CC)COC(N)=O` (stereo not drawn), the LD50 is 3150 mg/kg.
As to `Cc1nn(-c2cc(NS(C)(=O)=O)c(Cl)cc2Cl)c(=O)n1C(F)F`, the LD50 was 2860 mg/kg.
`CCC(C)OC(CBr)c1ccccc1` (stereo not drawn): the LD50 is 250 mg/kg.
`NCc1cccc(CN)c1`: the LD50 is 930 mg/kg.
As to `CC1(C)S[C@@H]2[C@H](NC(=O)C(C(=O)O)c3ccsc3)C(=O)N2[C@H]1C(=O)O` (stereo partly drawn), the LD50 is 16000 mg/kg.
On to `CCOC(=O)OC(C)OC(=O)[C@@H]1N2C(=O)[C@@H](NC(=O)[C@H](N)c3ccccc3)[C@H]2SC1(C)C` (stereo partly drawn), for which the LD50 is 10000 mg/kg.
`C=C(Cl)C(=O)Nc1ccc(OC)cc1`: the LD50 was 82 mg/kg.
For the compound `CCN(CC)C(=O)[C@]1(c2ccccc2)C[C@@H]1CN`, the LD50 is 213 mg/kg.
In the case of `Cc1cccc(C(=O)c2ccccc2)c1C`, the LD50 is 4920 mg/kg.
As to `CCOC(=O)C1(c2ccccc2)CCN(C)CC1`, the LD50 was 170 mg/kg.
On to `O=C(O)Cc1ccccc1Oc1c(Cl)c(Cl)cc(Cl)c1Cl`, for which the LD50 is 303 mg/kg.
Regarding `CC1(C)CCC(NC(=O)[C@@H](N)CCC(=O)O)CC1`, the LD50 was 1430 mg/kg.
Regarding `O=C1CCc2ccccc2O1`, the LD50 was 1460 mg/kg.
For the compound `Cc1ccc(N)c(C)c1`, the LD50 was 1260 mg/kg.
With `OC(CCl)CCl`, the LD50 is 110 mg/kg.
As for `CSc1nc(N=[N+]=[N-])nc(NC(C)C)n1`, the LD50 is 3600 mg/kg.
As to `CCN(C(=O)c1cc(Cl)nc(Cl)c1)C1CC1`, the LD50 is 78 mg/kg.
On to `c1ccc(CNc2ncnc3c2NCN3)cc1`, for which the LD50 was 2100 mg/kg.
`O=S(=O)(O)c1ccccc1O`: the LD50 was 1900 mg/kg.
Consider `COc1cc(Oc2ccc(Cl)cc2Cl)ccc1[N+](=O)[O-]`, for which the LD50 is 18000 mg/kg.
As to `Oc1cccc2cc3cccc(O)c3c(O)c12`, the LD50 was 3220 mg/kg.
On to `CNC(=O)N(C)c1nnc(C(F)(F)F)s1`, for which the LD50 was 278 mg/kg.
For `O=C(Cl)Oc1cccc2ccccc12`, the LD50 was 2550 mg/kg.
As to `Cc1onc2c(=O)n(-c3ccccc3)nc(-c3ccccc3)c12`, the LD50 was 1000 mg/kg.
On to `O=C(O)Cc1ccc(-c2ccccc2)cc1`, for which the LD50 was 164 mg/kg.
As to `Cc1ncc(CSCc2cnc(C)c(O)c2CO)c(CO)c1O`, the LD50 is 7500 mg/kg.
Take `c1ccc(CC2CCNCC2)cc1`: the LD50 was 540 mg/kg.
Take `Cc1cccc(Nc2ccccc2C(=O)O)c1C`: the LD50 is 740 mg/kg.
For `CCCCOc1ccc(CC(=O)NO)cc1`, the LD50 is 3370 mg/kg.
In the case of `CCOP(=S)(OCC)Oc1cc2ccccc2oc1=O`, the LD50 was 13 mg/kg.
For `COc1ccccc1OCC(O)CO` (stereo not drawn), the LD50 was 1510 mg/kg.
As for `FC(F)(F)c1nc2c(Cl)c(Cl)c(Cl)c(Cl)c2[nH]1`, the LD50 is 0.245 mg/kg.
In the case of `CCOC(=S)SSSC(=S)OCC`, the LD50 was 235 mg/kg.
For the compound `CCOc1c(N2CCOCC2)cnn(C)c1=O`, the LD50 is 1900 mg/kg.
Regarding `CCCCCCCCCCCCCCCCCCCCCCO`, the LD50 was 10000 mg/kg.
Consider `CCCCOCCOCCOC(=O)c1ccccc1C(=O)OCCOCCOCCCC`, for which the LD50 is 9700 mg/kg.
As to `c1ccc(Nc2ccc(Nc3ccccc3)cc2)cc1`, the median lethal dose (LD50) is 2370 mg/kg.
`CN1C(=O)c2ccc([N+](=O)[O-])cc2C1=O`: the LD50 was 2800 mg/kg.
Regarding `Cc1cc(-c2ccccc2)n[nH]1`, the LD50 is 1800 mg/kg.
`COC(=O)c1ccc2nc(C(F)(F)F)[nH]c2c1`: the LD50 is 22.3 mg/kg.
`CCOP(=O)(OCC)SCS(=O)(=O)CC`: the LD50 was 0.5 mg/kg.
As for `CC1OCC2C(CO1)C1(Cl)C(Cl)=C(Cl)C2(Cl)C1(Cl)Cl` (stereo not drawn), the LD50 is 120 mg/kg.
`O=C(CO)Nc1ccccc1`: the LD50 was 1700 mg/kg.
As to `c1cc2c(cc1CCC(CCc1ccc3c(c1)OCO3)N1CCCC1)OCO2`, the LD50 was 565 mg/kg.
As for `O=C(O)c1ccccc1Nc1c(Cl)cc(Cl)c2ccccc12`, the LD50 is 8500 mg/kg.
In the case of `ClCC=C(Cl)CCl`, the LD50 was 224 mg/kg.
Regarding `OCc1ccccc1`, the LD50 was 1230 mg/kg.
As to `CCCCN1CCCN=C1C(OCC)c1ccccc1` (stereo not drawn), the LD50 was 220 mg/kg.
On to `Cc1cc(C(=O)c2ccccc2)ccc1N=Cc1ccc(OCCC(C)C)cc1`, for which the LD50 was 1500 mg/kg.
On to `C#CC(=O)C=CC`, for which the LD50 is 71 mg/kg.
As to `C=C[Si](OCCOC)(OCCOC)OCCOC`, the LD50 is 2960 mg/kg.
On to `CNC(=O)ON=C1SCCOC1C` (stereo not drawn), for which the LD50 is 6 mg/kg.
As to `Nc1ccc(N)cc1`, the LD50 is 80 mg/kg and 147 mg/kg.
Take `O=C1CCc2cc(C(=O)CCCN3CCN(c4ccccc4Cl)CC3)ccc2N1`: the LD50 was 500 mg/kg.
`CCN(CC)CCOCc1cc(Br)ccc1OC`: the LD50 is 220 mg/kg.
On to `Clc1ccc(Sc2cc(Cl)c(Cl)cc2Cl)cc1`, for which the LD50 was 3960 mg/kg.
For `COP(=O)(OC)OC(=CBr)c1ccc(Cl)cc1Cl`, the LD50 was 225 mg/kg.
Regarding `CC(Cl)(Cl)C(=O)O`, the LD50 was 3860 mg/kg.
As for `Fc1cc2[nH]c(C(F)(F)F)nc2cc1Cl`, the LD50 was 8.66 mg/kg.
In the case of `CC1=CC(=O)c2c(O)cccc2C1=O`, the LD50 was 65 mg/kg.
Consider `CNC(=O)Oc1cc(C)c(SC)c(C)c1`, for which the LD50 was 20 mg/kg.
In the case of `CCOC(=O)C(C)O` (stereo not drawn), the 50% lethal dose (LD50) is 8200 mg/kg.
As to `CC(C(=O)O)c1ccc2oc(-c3ccc(Cl)cc3)nc2c1` (stereo not drawn), the LD50 is 118 mg/kg.
Turning to `CCN(CC)CCOc1ccccc1-n1c(C)ccc1-c1ccccc1`, the LD50 was 700 mg/kg.
For `COCCC#N`, the LD50 is 4390 mg/kg.
As to `O=C(OCC(Cl)(Cl)Cl)c1ccco1`, the LD50 was 600 mg/kg.
In the case of `COc1ccccc1N1CCN(CCC(=O)c2ccc(N3CCOCC3)cc2)CC1`, the LD50 is 400 mg/kg.
Take `CCCCNC(C)c1ccccc1` (stereo not drawn): the 50% lethal dose (LD50) is 360 mg/kg.
Regarding `O=S(=O)(c1ccccc1)c1ccccc1`, the LD50 was 300 mg/kg.
Turning to `CC(C)c1ccc(-c2ccccc2)cc1`, the LD50 is 8500 mg/kg.
On to `CC1CCCc2n1c(=O)c(C(N)=O)c[n+]2C` (stereo not drawn), for which the LD50 was 600 mg/kg.
`CN1CCN(c2cc3c(nn2)Oc2ccccc2N3C)CC1`: the LD50 is 1000 mg/kg.
On to `CCOCCC#N`, for which the LD50 is 3200 mg/kg.
